Assay [1] concerns the target T1, fused protein of DNA-binding domain of yeast transcription factor with ligand-binding domain of human type PPAR α (Homo sapiens, UniProt Q07869).
T1 sequence (Q07869 239-466 limits assumed): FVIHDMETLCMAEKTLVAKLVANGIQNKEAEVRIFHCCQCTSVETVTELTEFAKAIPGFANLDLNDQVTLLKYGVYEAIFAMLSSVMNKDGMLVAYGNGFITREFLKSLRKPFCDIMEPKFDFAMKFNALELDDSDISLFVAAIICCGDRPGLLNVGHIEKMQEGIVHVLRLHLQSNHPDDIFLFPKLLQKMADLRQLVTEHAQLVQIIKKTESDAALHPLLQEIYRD
Put plainly: Test of transactivation on peroxisome proliferator-activated receptor α (CHO cells, reporter assay).
Experimental: (§1) Test of transactivation on peroxisome proliferator-activated receptors α and γ
(§2) After 24 hours, CAT activity and γ-galactosidase activity were measured.

In assay [2] the target is T2, fused protein of DNA-binding domain of yeast transcription factor with ligand-binding domain of human type PPAR γ (Homo sapiens, UniProt P37231).
T2 sequence (P37231 238-503 limits assumed): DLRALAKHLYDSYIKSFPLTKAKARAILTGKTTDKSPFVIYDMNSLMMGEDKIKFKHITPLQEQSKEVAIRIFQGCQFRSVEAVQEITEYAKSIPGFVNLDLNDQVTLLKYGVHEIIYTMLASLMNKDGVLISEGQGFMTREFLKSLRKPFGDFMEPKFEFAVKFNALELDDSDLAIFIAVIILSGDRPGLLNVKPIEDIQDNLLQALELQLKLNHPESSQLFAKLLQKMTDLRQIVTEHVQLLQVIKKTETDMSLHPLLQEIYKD
Put plainly: Test of transactivation on peroxisome proliferator-activated receptor γ (CHO cells, reporter assay).
Experimental: as §1, §2

Like-named read-outs stand apart in the source and are kept apart here.

What is called EC50 is the concentration that produces a half-maximal response. In the case of `COc1ccc(CC2SC(=O)NC2=O)cc1C(=O)NCc1ccccn1` (stereo not drawn) [Example 1, N-[(2-Pyridyl)methyl]-5-[(2,4-dioxothiazolidin-5-yl)methyl]-2-methoxybenzamide], the figures for the EC50 in assay [1] and in assay [2] were 353 nM and 300 nM, respectively.
Consider `COc1ccc(CC2SC(=O)NC2=O)cc1C(=O)NCC1CCCCC1` (stereo not drawn) [Example 4, N-(Cyclohexylmethyl)-5-[(2,4-dioxothiazolidin-5-yl)methyl]-2-methoxybenzamide], for which the EC50 is 300 nM in assay [1] and 230 nM in assay [2].
As for `CCCCC/C=C\C/C=C\C=C\[C@@H](O)C/C=C\CCCC(=O)O` [(8S)-HETE, reference compound], the EC50 in assay [1] (read-out: Transactivation PPARα EC50, CHO cells, cotransfected receptor and reporter plasmid, 24 hours, CAT activity) came out at 1300 nM.
As to `COc1ccc(CC2SC(=O)NC2=O)cc1C(=O)NCc1ccncc1` (stereo not drawn) [Example 3, N-[(4-Pyridyl)methyl]-5-[(2,4-dioxothiazolidin-5-yl)methyl]-2-methoxybenzamide], the EC50 came out at 235 nM in assay [1] and 140 nM in assay [2].
On to `COc1ccc(CC2SC(=O)NC2=O)cc1C(=O)NCc1cccnc1` (stereo not drawn) [Example 2, N-[(3-Pyridyl)methyl]-5-[(2,4-dioxothiazolidin-5-yl)methyl]-2-methoxybenzamide], for which the figures for the EC50 in assay [1] and in assay [2] were 420 nM and 960 nM, respectively.
